Active and inactive are the calls of the source.
How the values were obtained:
Type in all cases: functional, organism-based
Human alphaherpesvirus 1 [1] = experiment: Antiviral activity against thymidine kinase deficient HSV1 KOS in HEL cells at 100 ug/mL
[2] = test system: Respiratory syncytial virus; experiment: Antiviral activity against RSV in HeLa cells at 100 ug/mL
[3] = test system: Vesicular stomatitis virus; experiment: Antiviral activity against VSV in HEL cells at 100 ug/mL
Punta Toro virus = experiment: Antiviral activity against Punta Toro virus in Vero cells at 100 ug/mL
Influenza B virus = experiment: Antiviral activity against influenza B virus in MDCK cells at 100 ug/mL
Human respirovirus 3 = experiment: Antiviral activity against parainfluenza 3 virus in Vero cells at 100 ug/mL
Influenza A virus [4] = experiment: Antiviral activity against influenza A virus H3N2 in MDCK cells at 100 ug/mL
Vaccinia virus = experiment: Antiviral activity against vaccinia virus in HEL cells at 100 ug/mL; conditions: Orthopoxvirus vaccinia
Coxsackievirus B4 [5] = experiment: Antiviral activity against Coxsackie virus B4 in HeLa cells at 100 ug/mL
Coxsackievirus B4 [6] = experiment: Antiviral activity against Coxsackie virus B4 in Vero cells at 100 ug/mL
[7] = test system: Vesicular stomatitis virus; experiment: Antiviral activity against VSV in HeLa cells at 100 ug/mL
Human alphaherpesvirus 1 [8] = experiment: Antiviral activity against HSV1 KOS in HEL cells at 100 ug/mL
Sindbis virus = experiment: Antiviral activity against Sindbis virus in Vero cells at 100 ug/mL
Influenza A virus [9] = experiment: Antiviral activity against influenza A virus H1N1 in MDCK cells at 100 ug/mL
Human alphaherpesvirus 2 = experiment: Antiviral activity against HSV2 G in HEL cells at 100 ug/mL
[10] = test system: Mammalian orthoreovirus 1; experiment: Antiviral activity against Reovirus1 in Vero cells at 100 ug/mL

Measured: Activity

C[C@]12O[C@H]1[C@H](n1cnc3c(NC4CC4)ncnc31)C[C@@H]2CO
inactive: Human alphaherpesvirus 1 [1] | [2] | [3] | Punta Toro virus | Influenza B virus | Human respirovirus 3 | Influenza A virus [4] | Vaccinia virus | Coxsackievirus B4 [5] | Coxsackievirus B4 [6] | [7] | Human alphaherpesvirus 1 [8] | Sindbis virus | Influenza A virus [9] | Human alphaherpesvirus 2 | [10]

C[C@]12C[C@H](n3cnc4c(NC5CC5)nc(N)nc43)C[C@@]1(CO)O2
inactive: Human alphaherpesvirus 1 [1] | [2] | [3] | Punta Toro virus | Influenza B virus | Human respirovirus 3 | Influenza A virus [4] | Vaccinia virus | Coxsackievirus B4 [5] | Coxsackievirus B4 [6] | [7] | Human alphaherpesvirus 1 [8] | Sindbis virus | Influenza A virus [9] | Human alphaherpesvirus 2 | [10]

C[C@]12O[C@H]1[C@H](n1cnc3c(NC4CC4)nc(N)nc31)C[C@@H]2CO
inactive: Human alphaherpesvirus 1 [1] | [2] | [3] | Punta Toro virus | Influenza B virus | Human respirovirus 3 | Influenza A virus [4] | Vaccinia virus | Coxsackievirus B4 [5] | Coxsackievirus B4 [6] | [7] | Human alphaherpesvirus 1 [8] | Sindbis virus | Influenza A virus [9] | Human alphaherpesvirus 2 | [10]

C[C@]12C[C@H](n3cnc4c(NC5CC5)ncnc43)C[C@@]1(CO)O2
inactive: Human alphaherpesvirus 1 [1] | [2] | [3] | Punta Toro virus | Influenza B virus | Human respirovirus 3 | Influenza A virus [4] | Vaccinia virus | Coxsackievirus B4 [5] | Coxsackievirus B4 [6] | [7] | Human alphaherpesvirus 1 [8] | Sindbis virus | Influenza A virus [9] | Human alphaherpesvirus 2 | [10]

C[C@]12C[C@H](n3cnc4c(N)ncnc43)C[C@@]1(CO)O2
inactive: Human alphaherpesvirus 1 [1] | [2] | [3] | Punta Toro virus | Influenza B virus | Human respirovirus 3 | Influenza A virus [4] | Vaccinia virus | Coxsackievirus B4 [5] | Coxsackievirus B4 [6] | [7] | Human alphaherpesvirus 1 [8] | Sindbis virus | Influenza A virus [9] | Human alphaherpesvirus 2 | [10]

C[C@]12O[C@H]1[C@H](n1cnc3c(N)ncnc31)C[C@@H]2CO
inactive: Human alphaherpesvirus 1 [1] | [2] | [3] | Punta Toro virus | Influenza B virus | Human respirovirus 3 | Influenza A virus [4] | Vaccinia virus | Coxsackievirus B4 [5] | Coxsackievirus B4 [6] | [7] | Human alphaherpesvirus 1 [8] | Sindbis virus | Influenza A virus [9] | Human alphaherpesvirus 2 | [10]

Source: ChEMBL document CHEMBL1140758, “Chemoenzymatic synthesis and antiviral evaluation of conformationally constrained and 3'-methyl-branched carbanucleosides using both enantiomers of the same building block” (Bioorg Med Chem, 2008)
